According to patent US11202792B2, “CD99 inhibitors and their uses” (GEORGETOWN UNIVERSITY, priority 2016, dated 2021):
Where two headings read alike, the source gives them in different places.

Experiments:
non-ES cell lines = assay: Cell viability IC50 panel, non-ES cell lines; assay type: cell-based; conditions: 48 h; highest concentration tested (10 or 30 μmol/L) used for resistant lines; unit not printed with values
Protocol: (§1) The plate was installed into the RTCA system, and the electrical impedance (represented as cell index) was measured every 10 min.
Therefore, two leukemia cell lines, MOLT-4 and Jurkat, were included as positive controls in this experiment.

[1] = test system: RD18 rhabdomyosarcoma cells; assay: Cell viability IC50, RD18; assay type: cell-based; conditions: Homo sapiens, RD18 (RM)
Protocol: as §1
(§2) To investigate the relationship between the level of CD99 expression and drug sensitivity, the endogenous expression of CD99 was determined in a panel of 9 ES and 13 non-ES cell lines. The recombinant purified CD99-ECD protein was used to generate standard curves for immunoquantification of CD99 expression by immunoblotting (FIGS. 6B and 6C).

[2] = test system: RH4 rhabdomyosarcoma cells; assay: Cell viability IC50, RH4; assay type: cell-based; conditions: Homo sapiens, RH4 (RM)
Protocol: as §1, §2

[3] = biological target: T1, interaction of CD99 with cyclophilin A and PKA-RIIα (Homo sapiens, UniProt P14209); assay: Co-immunoprecipitation of CD99 with cyclophilin A and PKA-RIIα; assay type: cell-based; conditions: 3 μmol/L, 6 h; RDES or STA-ET-7.2 cells
T1 construct: Endogenous CD99 was immunoprecipitated from RDES or STA-ET-7.2 ES cells; endogenous in cells; host or cells: RDES or STA-ET-7.2
Protocol: In FIG. 7A, STA-ET-7.2 ES cells were incubated with either drug at 5 μmol/L concentration or DMSO for 1 h. The cells were treated with cross-linking agent BS^3 as described in the Examples. The lysates were resolved in 12% SDS-PAGE followed by immunoblotting with anti-actin and anti-CD99 clone 013 antibodies. M and D represent monomeric and dimeric forms of CD99, respectively. Values given below the lanes on the immunoblot represent the relative density of the bands, and were determined using ImageJ 1.48v software. In FIG. 7B, RDES or STA-ET-7.2 ES cells were treated with 3 μmol/L of either drug for 6 h. Endogenous CD99 was immunoprecipitated from total cell lysates using either anti-CD99 clone 12E7 antibody or anti-CD99 clone 013 antibody. Immunoblot (IB) analysis was performed for cyclophilin A, CD99 and PKA-RIIα using both cell lysates (TCL) and immunoprecipitated (IP) samples. Values given below the lanes on each immunoblot represent the relative density of the bands, and were determined using ImageJ 1.48v software. In FIG. 7C, SAOS-2 and U-2 OS cells were transiently transfected with an empty mammalian expression vector (EV) or an expression construct containing a cDNA encoding full length human CD99. The growth rate of cells was monitored by electrical impedance in real time. […]

ES cell lines = assay: Cell viability IC50 panel (WST-1 or MTT), ES cell lines; assay type: cell-based, human; conditions: for IC50: Homo sapiens, 48 h, read-out: average IC50 concentration for ES cell lines; for IC50 concentrations, ES cell lines: all ES cell lines except A673; for increased sensitivity of ES compared to non-ES cell lines: ratio of average IC50 non-ES vs ES
6647 and TC-71 ES cells = assay: Transwell cell migration assay; assay type: cell-based, human; conditions: 24 h pre-treatment; cladribine 1 or 3 μmol/L, clofarabine 0.3 or 0.5 μmol/L
Protocol: Immunoblot analysis was performed on total cell lysates for ROCK2 and GAPDH expression. In FIG. 8B, TC-71 control and TC-CD99-shRNA #2 cells were treated with either drug at indicated concentrations for 1, 3 and 6 h. Immunoblot analysis was performed on total cell lysates for ROCK2 and GAPDH expression. In FIG. 8C, cell migration experiments were performed using Boyden chamber transwell migration assay with 10% serum serving as the chemoattractant in the lower chamber. […] The number of migrated cells was then quantified by counting the cells in the bottom chamber under the microscope. Asterisks indicate statistically significant differences between treatments (*p<0.05; vs. control using a Student's unpaired t test).
Motility assay was done using Trans-well chambers (Costar; Corning (Corning, N.Y.)) according to manufacturer's instructions.

IOR/OS9 OS cells = assay: Cell viability IC50, IOR/OS9; assay type: cell-based; conditions: Homo sapiens
Protocol: as §1, §2

[4] = biological target: T2, CD99 homodimers in STA-ET-7.2 ES cells (Homo sapiens, UniProt P14209); assay: Chemical cross-linking with BS3, CD99 homodimer formation; assay type: cell-based; conditions: 5 μmol/L, 1 h, then 1 mmol/L BS3; STA-ET-7.2 cells
T2 construct: STA-ET-7.2 ES cells, which express the highest level of CD99 protein among all ES cell lines; endogenous in cells; host or cells: STA-ET-7.2
Protocol: The cells were rinsed 3 times with ice-cold PBS, and treated with 1 mmol/L BS^3 (Thermo Scientific) in PBS for 10 min at 37° C. according to manufacturer's instructions. […] Protein samples were then prepared by lysing the cross-linked cells in a lysis buffer as described above.
To address this, in a chemical cross-linking assay, STA-ET-7.2 ES cells were preincubated with the inhibitors for 1 h at a final concentration of 5 μmol/L followed by the addition of 1 mmol/L BS^3, a membrane-impermeable chemical cross-linking agent.

T2 sequence (P14209 23-185): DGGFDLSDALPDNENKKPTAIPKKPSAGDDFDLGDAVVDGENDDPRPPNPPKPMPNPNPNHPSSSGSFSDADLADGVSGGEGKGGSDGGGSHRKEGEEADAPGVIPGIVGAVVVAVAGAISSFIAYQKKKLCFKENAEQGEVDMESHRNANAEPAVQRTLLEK
T1 sequence (P14209 23-185): as above

Row | Compound | tolerability (TC-71 and SKES xenograft models, clofarabine 30 mg/kg in TC-71) | total body weight (weighed daily during treatment) | IC50 (non-ES cell lines) [µM] | IC50 [1] [µM] | IC50 [2] [µM] | amount of coprecipitated cyclophilin A and PKA-RIIα [3] | IC50 (ES cell lines) [µM] | IC50 concentrations, ES cell lines (ES cell lines) | increased sensitivity of ES compared to non-ES cell lines (ES cell lines) [fold] | number of migrated cells (6647 and TC-71 ES cells) | IC50 (IOR/OS9 OS cells) [µM] | formation of CD99 homodimers [4] | total body weight (mouse, in vivo)
1 | Nc1nc(Cl)nc2c1ncn2[C@@H]1O[C@H](CO)[C@@H](O)[C@@H]1F [clofarabine] | early deaths | does not change | ≥ 13.7 | 0.97 | > 10 | decreased significantly | 0.44 ± 0.44 | submicromolar | 31 | significantly decreased | > 10 | blocked | 
2 | Nc1nc(Cl)nc2c1ncn2[C@H]1C[C@H](O)[C@@H](CO)O1 [cladribine] |  |  | ≥ 20.1 | 3.67 | > 30 | decreased significantly | 1.09 ± 1.85 | submicromolar | 18 | significantly decreased | > 30 | significantly reduced | does not change
